# US20230192608A1, “WATER-SOLUBLE, MODIFIED AMINO ACID DERIVATIVES FOR TREATMENT OF NEUROLOGICAL DISEASES, AND SELECTED PSYCHIATRIC DISORDERS” (Uniwersytet Jagiellonski, priority 2020, published 2023)
# Marks after values point to notes of the source that are not given here.
# Tests used:
# [1] = Water solubility test at 25° C. per 1 gram of compound (European Pharmacopoeia 10.0 / Polish Pharmacopoeia XII); conditions: for The volume of water required for dissolution of 1 g of the substance at 25° C.: 1 g of compound, maximum volume of water used 100 mL; for Matching term (solubility in water, pharmacopoeial terminology): European Pharmacopoeia 10.0 / Polish Pharmacopoeia XII
# [2] = tested on: male white Swiss mice (CD-1); experiment: Subcutaneous pentylenetetrazole test (scPTZ), screening; assay type: in vivo; conditions: 100 mg/kg intraperitoneal, time point 0.5 h
# Description: (§1) The studies were carried out on male white Swiss mice (CD-1) weighing 18-26 g. All procedures were performed in accordance with the applicable Polish and international guidelines for the ethics of animal research, after obtaining of the appropriate institutional consent. […] Screening tests were performed in groups consisted of 4 mice. All tests were performed according to the procedures described in the specialist literature: maximal electroshock test (MES) (Kamiński et al. Bioorg. Med. Chem. 2015, 23, 2548-2561; Castel-Branco et al. Pharmacol. 2009, 31, 101-106, Riban et al. Neurosci. 2002, 112, 101-111); psychomotor seizure test (6 Hz, 32 mA) (Barton et al. Epilepsy Res. 2001, 47, 217-227; Wojda et al. Epilepsy Res. 2009, 86, 163-174); subcutaneous pentylenetetrazole test (scPTZ) (Ferreri et al. Pharmacol. Biochem. Behav. 2004, 77, 85-94).
# [3] = tested on: male white Swiss mice (CD-1); experiment: Maximal electroshock test (MES), screening; assay type: in vivo; conditions: 100 mg/kg intraperitoneal, time point 0.5 h
# Description: as §1
# [4] = tested on: male white Swiss mice (CD-1); experiment: Psychomotor seizure test (6 Hz, 32 mA), screening; assay type: in vivo; conditions: 100 mg/kg intraperitoneal, time point 0.5 h
# Description: as §1
# [5] = tested on: male white Swiss mice (CD-1); experiment: Anticonvulsant screening summarised over MES, scPTZ and 6 Hz (32 mA) models; assay type: in vivo; conditions: screening data of Table 3, 100 mg/kg intraperitoneal
# Description: as §1
# These models are recognized as the most important and widely used pharmacological tests allowing the identification of candidates for new antiepileptic drugs. […] This is crucial in situations requiring immediate intervention to stop seizures, including, e.g status epilpepticus, which is considered as a life-threatening situation.
# [6] = tested on: male white Swiss mice (CD-1); conditions: model AED, comparison; cited from earlier work
# [7] = tested on: male white Swiss mice (CD-1); conditions: model AED, comparison; cited from earlier work; remark: listed apart in the source
SMILES,The volume of water required for dissolution of 1 g of the substance at 25° C. [1],"Matching term (solubility in water, pharmacopoeial terminology) [1]",scPTZ: number of mice protected/number of mice tested [2],MES: number of mice protected/number of mice tested [3],6 Hz (32 mA): number of mice protected/number of mice tested [4],Anticonvulsant activity (in words) [5],Activity in MES test (in words) [6],Activity in scPTZ test (in words) [7]
"CC(C(=O)NCc1ccccc1F)N1CCCC1=O [(2R,S)-4, (2R,S)-N-(2-fluorobenzyl)-2-(2-oxopyrrolidin-1-yl)propanamide]",30 mL,Soluble,2/4,3/4,3/4,–,–,–
"CC(C(=O)NCc1ccccc1)N1C(=O)CCC1=O (racemic) [(2R,S)-1, reference compound]",>100^c mL,Slightly soluble,2/4,3/4,3/4,–,–,–
"CC(C(=O)NCc1ccccc1)N1CCCC1=O (stereo not shown) [Compound 3, N-benzyl-2-(2-oxopyrrolidin-1-yl)propanamide]",–,water-soluble substances,–,–,–,–,–,–
"CC(C(=O)NCc1ccccc1F)N1C(=O)CCC1=O (racemic) [(2R,S)-2, reference compound]",>100^c mL,Slightly soluble,3/4,3/4,3/4,–,–,–
"C[C@@H](C(=O)NCc1ccccc1)N1CCCC1=O [Compound (2S)-3, (2S)-N-benzyl-2-(2-oxopyrrolidin-1-yl)propanamide]",25 mL,Soluble,2/4,2/4,2/4,–,–,–
"C[C@H](C(=O)NCc1ccccc1F)N1CCCC1=O [Compound (2R)-4, (2R)-N-(2-fluorobenzyl)-2-(2-oxopyrrolidin-1-yl)propanamide]",30 mL,Soluble,3/4,4/4,4/4,potent anticonvulsant activity,–,–
"C[C@H](C(=O)NCc1ccccc1)N1C(=O)CC(N(C)C)C1=O.Cl (stereo partly drawn) [Compound (2R)-5 × HCl, (2R)-N-benzyl-2-(3-(dimethylamino)-2,5-dioxopyrrolidin-1-yl)propanamide hydrochloride]",–,–,–,–,–,potent anticonvulsant activity,–,–
"C[C@H](C(=O)NCc1ccccc1)N1C(=O)CCC1=O [(2R)-1, reference compound]",>100^c mL,Slightly soluble,3/4,3/4,4/4,–,–,–
"C[C@H](C(=O)NCc1ccccc1)N1CCCC1=O [Compound (2R)-3, (2R)-N-benzyl-2-(2-oxopyrrolidin-1-yl)propanamide]",25 mL,Soluble,3/4,4/4,4/4,potent anticonvulsant activity,–,–
"C[C@H](C(=O)NCc1ccccc1F)N1C(=O)CCC1=O [(2R)-2, reference compound]",>100^c mL,Slightly soluble,3/4,4/4,4/4,–,–,–
"CC(C(=O)NCc1ccccc1)N1C(=O)CC(N(C)C)C1=O (stereo not shown) [Compound 5, N-benzyl-2-(3-(dimethylamino)-2,5-dioxopyrrolidin-1-yl)propanamide]",–,substances easily soluble in water,–,–,–,–,–,–
CC(C(=O)NCc1ccccc1F)N1C(=O)CC(N(C)C)C1=O (stereo not shown) [Compound 6],–,substances easily soluble in water,–,–,–,–,–,–
"C[C@@H](C(=O)NCc1ccccc1)N1C(=O)CCC1=O [(2S)-1, reference compound]",>100^c mL,Slightly soluble,2/4,1/4,4/4,–,–,–
"CC(C(=O)NCc1ccccc1)N1CCCC1=O [Compound (2R,S)-3, (2R,S)-N-benzyl-2-(2-oxopyrrolidin-1-yl)propanamide]",25 mL,Soluble,2/4,3/4,4/4,–,–,–
"CC(C(=O)NCc1ccccc1F)N1CCCC1=O (stereo not shown) [Compound 4, N-(2-fluorobenzyl)-2-(2-oxopyrrolidin-1-yl)propanamide]",–,water-soluble substances,–,–,–,–,–,–
"C[C@@H](C(=O)NCc1ccccc1F)N1C(=O)CCC1=O [(2S)-2, reference compound]",>100^c mL,Slightly soluble,2/4,2/4,2/4,–,–,–
CC[C@@H](C(N)=O)N1CCCC1=O [levetiracetam],–,–,–,–,–,–,inactive,inactive
"C[C@@H](C(=O)NCc1ccccc1F)N1CCCC1=O [Compound (2S)-4, (2S)-N-(2-fluorobenzyl)-2-(2-oxopyrrolidin-1-yl)propanamide]",30 mL,Soluble,2/4,2/4,2/4,–,–,–
"C[C@H](C(=O)NCc1ccccc1F)N1C(=O)CC(N(C)C)C1=O.Cl (stereo partly drawn) [Compound (2R)-6 × HCl, (2R)-2-(3-(dimethylamino)-2,5-dioxopyrrolidin-1-yl)-N-(2-fluorobenzyl)propanamide hydrochloride]",–,–,–,–,–,potent anticonvulsant activity,–,–
